According to patent publication US9750242B2, “Nitrite salts as poisons in baits for omnivores” (priority 2007, dated 2017):
Where two headings read alike, the source gives them in different places.

Key:
[1] = system: dingos; details: bait delivered 1080, captive trials; cited from earlier work
[2] = system: feral pigs; details: for Mean peak Met hb: approximate peak
From the text: The captive feral pig colony at Robert Wicks Pest Animal Research Centre (Queensland Department of Natural Resource, Mines and Water) was comprised of feral pigs harvested by commercial harvesters in the area surrounding Inglewood, Queensland. A variety of sexes, ages and sizes were drawn at random from the captive colony and used in these trials. Feral pigs were housed in the purpose built feral pig accommodation.
This trial occurred in January 2006. The trial design is set out in FIG. 5. Twenty-one fasted captive feral pigs were anaesthetised with ketamine (20 mgkg^−1) and xylazine (1.2 mgkg^−1) by intramuscular injection with a 16 gauge needle into the quadriceps muscle. […] The resulting liquid was then administered by oesophageal gavage to an individual feral pig. A number of sodium nitrate dosages were trialled on different groups of feral pigs. After administration, feral pigs were observed carefully for clinical signs and death. […] Each dose rate contained three feral pigs.
This was done on an identical manner to the placebo feral pigs.
Feral pigs were then sampled opportunistically at various times over the following minutes or hours. […] Feral pigs which recovered from anaesthetic quickly, or were large, were sampled less frequently than other feral pigs. All feral pigs were also blood sampled immediately after death (within 1 minute). The blood samples were used to assess Methaemoglobin levels (Met […] Hb). An automated radio-oximeter (model ABL520 supplied by Radiometer Copenhagen) was used for blood Met Hb analysis. The Met Hb data from each individual within a group was pooled to provide dose response curves for multiple feral pigs administered at a single dose rate. The feral pigs which received 135 mgkg^−1 were not blood sampled until after death. A post mortem examination was conducted on all feral pigs.
Serial Met Hb levels were pooled for each group of feral pigs receiving a single dose rate and plotted against time. Trend-lines were fitted to the data. Logarithmic functions were used for the three higher dose rates, while a polynomial trend line was fitted to the 90 mgkg^−1 feral pig group. […] This program makes few assumptions about data and consists of a range of univariate, multivariate and graphical routines for analysing matrices of samples. Specifically, ordination by multidimensional scaling (MDS) was used to visually differentiate feral pigs based on variables (time to death, peak Met haemoglobin levels, time to dyspnoea and time to vomiting). One factor was used, dose rate. Data was normalized and 30 random resets occurred. ANOSIM was used to determine whether significant differences between these variables were due to dose rate. SIMPER (a function of Primer) was used to determine dissimilarity between dose rates, or what dose rates were most dissimilar.

[3] = system: feral pigs; experiment: Bait delivery trial: sodium nitrite to feral pigs in food; type: in vivo, feral pig
Method: The trials were conducted in October 2005 and June 2006. Both trials were designed to test the hypothesis that SN would be lethal to feral pigs when they consumed the toxin freely in food. […] Before the toxin trial, each feral pig was pre-fed daily for 10 days with the bait substrate they were to receive during the toxin trial (bait or dry wheat). During the trial, six feral pigs acted as controls, receiving no toxin, but receiving bait substrate (carrier material). Three of these received wheat and three received the manufactured baits of the type described in Example 2. The remaining 18 feral pigs were divided into three groups of six animals. Three pigs in each group received 250 or 500 g (depending on body size and therefore total toxic dose to deliver) of wheat and the other three received one or two the baits (again, amount of toxin dependent). […] Feral pigs were observed every 15 minutes for 6 hours, then hourly for 6 hours, then at euthanasia 12 hours after clinical signs developed (if they remained alive). Each dose rate contained six animals divided evenly amongst two bait carrier materials. Six controls were used.

[4] = system: Common brushtail possum
[5] = system: Northern brown bandicoot
[6] = system: Pig
[7] = system: Rat
[8] = system: Raccoon
[9] = system: Mouse
[10] = 44.8 kg male with profuse bleeding into the thorax
[11] = gavage, doses of 135 mgkg^-1 or above, nine feral pigs

Question: Which LD50 dose [1] does the source give for `O=C(O)CF` [Example 1080, sodium fluoroacetate] here?
Answer: Its LD50 dose is 0.11 mg/kg.

Question: Which “synergism with SN (Met Hb curves)” value ([2]; 30 g sodium carbonate followed by 180 mgkg^-1 SN, gavage) does the source give for `O=C([O-])[O-].[Na+].[Na+]` [Sodium carbonate, sodium carbonate, reference compound] here?
Answer: Its value is “did not appear to act as a synergist”.

Question: Which “peak Met Hb level, individual pig” value [2, 10] does the source give for `O=NO` [SN, Sodium nitrite] here?
Answer: Its value is 90.1%.

Question: What about the “time to death after gavage, individual pig” value [2, 10] of the same compound?
Answer: The value was 47 min.

Question: And the post mortem abnormalities ([2]; 90 mgkg^-1 group)?
Answer: The post mortem abnormalities was “no abnormalities were detected”.

Question: And the “post mortem abnormalities, only consistent sign” value ([2]; all animals which died following nitrite ingestion)?
Answer: The value was “dark or chocolate coloured blood and subsequent discolouration of organs and tissues which are well vascularised”.

Question: What about the “Met Hb levels in surviving pigs” value ([2]; gavage 90 mg/kg, 14 hours post administration, two survivors) of the same compound?
Answer: The value was “near zero”.

Question: And the “deaths of animals dosed” value ([2]; gavage 90 mgkg^-1)?
Answer: Its value is “one of three”.

Question: And the “period of lethargy (lessened gradually)” value ([2]; gavage 90 mgkg^-1)?
Answer: Its value is 4 to 6 h.

Question: And the Death/survival ([2]; gavage 90 mgkg^-1, 3 feral pigs)?
Answer: The Death/survival was 1/2.

Question: And the “time to death of one animal after dosing” value ([2]; gavage 90 mgkg^-1, following blood sampling)?
Answer: The value was “approximately 5 hours”.

Question: What about the vomiting ([2]; gavage 90 mgkg^-1, three hours after intoxication) of the same compound?
Answer: Its vomiting is “two of three animals”.

Question: What about the “Mean peak Met hb” value ([2]; gavage 90 mgkg^-1, two from three animals assessed) of the same compound?
Answer: Its value is 55^3%.

Question: And the “Mean time to death” value ([2]; gavage 135 mgkg^-1)?
Answer: Its value is 115 ± 18 min.

Question: What about the Death/survival ([2]; gavage 135 mgkg^-1, 3 feral pigs) of the same compound?
Answer: Its Death/survival is 3/0.

Question: What about the “Mean peak Met hb” value ([2]; gavage 135 mgkg^-1) of the same compound?
Answer: Its value is 89 ± 6%.

Question: What about the “Mean time to death” value ([2]; gavage 180 mgkg^-1) of the same compound?
Answer: Its value is 87 ± 16 min.

Question: What about the Death/survival ([2]; gavage 180 mgkg^-1, 3 feral pigs) of the same compound?
Answer: The Death/survival was 3/0.

Question: And the “Mean peak Met hb” value ([2]; gavage 180 mgkg^-1)?
Answer: The value was 83 ± 8%.

Question: What about the “Mean time to death” value ([2]; gavage 180 mgkg^-1 with Na2CO3) of the same compound?
Answer: Its value is 52 ± 26 min.

Question: What about the Death/survival ([2]; gavage 180 mgkg^-1 with Na2CO3 (30 g), 3 feral pigs) of the same compound?
Answer: The Death/survival was 3/0.

Question: What about the “Mean peak Met hb” value ([2]; gavage 180 mgkg^-1 with Na2CO3) of the same compound?
Answer: The value was 80 ± 15%.

Question: And the “in-coordination, paddling and short convulsive seizures” value ([2]; gavage >=135 mgkg^-1, close to time of death)?
Answer: Its value is “two of nine animals”.

Question: And the “time to dyspnoea after gavage” value ([2]; gavage >=135 mgkg^-1, most animals)?
Answer: Its value is 30 to 60 min.

Question: And the vomiting ([2]; gavage >=135 mgkg^-1, nine animals)?
Answer: Its vomiting is “Seven animals vomited between 1-4 times”.

Question: What about the “effect on blood Met Hb values” ([2]; gavage, all feral pigs that were sampled) of the same compound?
Answer: Its value is “rapid increases in blood Met Hb values”.

Question: What about the “range of time to death” value ([2]; gavage, doses of 135 mgkg^-1 or above) of the same compound?
Answer: The value was 42 to 130 min.

Question: What about the deaths [2, 11] of the same compound?
Answer: The deaths was “All nine feral pigs that received doses of 135 mgkg^−1 or above died”.

Question: And the “mean time to death (S.D.)” value [2, 11]?
Answer: Its value is 106 ± 75 min.

Question: What about the “mean peak Met Hb level in killed feral pigs” value ([2]; gavage, killed feral pigs) of the same compound?
Answer: Its value is 82%.

Question: And the deaths ([3]; 135 mgkg^-1 in bait substrate, six animals)?
Answer: Its deaths is “none died”.

Question: What about the deaths ([3]; 270 mgkg^-1 consumed, five animals) of the same compound?
Answer: Its deaths is “one of these died”.

Question: And the deaths ([3]; 540 mgkg^-1 consumed in either bait substrate, 2 for each substrate)?
Answer: The deaths was 4/4.

Question: And the “mean time that clinical signs were displayed” value ([3]; all animals)?
Answer: Its value is 84 ± 41 min.

Question: And the “mean time to death (S.D.)” value ([3]; all dead animals)?
Answer: The value was 141 ± 49 min.

Question: And the “mean time that clinical signs were displayed” value ([3]; animals receiving the full 540 mgkg^-1 dose)?
Answer: Its value is 80 ± 51 min.

Question: What about the “mean time to death (S.D.)” value ([3]; animals that received the full 540 mgkg^-1 dose) of the same compound?
Answer: Its value is 122 ± 49 min.

Question: What about the “outcome of one animal with partial dose” value ([3]; approximately 400 mgkg^-1 in wheat (370 g of 500 g eaten)) of the same compound?
Answer: Its value is “still died”.

Question: And the “Approximate bait lethal dose” value [4]?
Answer: Its value is roughly 489 mg/kg.

Question: What about the “Approximate gavage lethal dose” value [4] of the same compound?
Answer: The value was roughly 163 mg/kg.

Question: What about the “Approximate lethal SN dose” value ([4]; body size 4 kg) of the same compound?
Answer: Its value is roughly 2.0 gm.

Question: And the “Approximate bait lethal dose” value [5]?
Answer: Its value is roughly 696 mg/kg.

Question: What about the “Approximate gavage lethal dose” value [5] of the same compound?
Answer: Its value is roughly 232 mg/kg.

Question: What about the “Approximate lethal SN dose” value ([5]; body size 2 kg) of the same compound?
Answer: Its value is roughly 1.4 gm.

Question: And the “Approximate bait lethal dose” value [6]?
Answer: The value was roughly 310 mg/kg.

Question: And the “Approximate gavage lethal dose” value [6]?
Answer: The value was roughly 103 mg/kg.

Question: What about the “Approximate lethal SN dose” value ([6]; body size 50 kg) of the same compound?
Answer: The value was roughly 15.5 gm.

Question: What about the “Approximate bait lethal dose” value [7] of the same compound?
Answer: The value was roughly 291 mg/kg.

Question: And the “Approximate gavage lethal dose” value [7]?
Answer: Its value is roughly 97 mg/kg.

Question: What about the “Approximate lethal SN dose” value ([7]; body size 0.1 kg) of the same compound?
Answer: The value was roughly 0.03 gm.

Question: What about the “Approximate bait lethal dose” value [8] of the same compound?
Answer: The value was roughly 150 mg/kg.

Question: What about the “Approximate lethal SN dose” value ([8]; body size 3 kg) of the same compound?
Answer: The value was roughly 0.75 gm.

Question: What about the “Approximate bait lethal dose” value [9] of the same compound?
Answer: Its value is roughly 705 mg/kg.

Question: And the “Approximate gavage lethal dose” value [9]?
Answer: The value was roughly 235 mg/kg.

Question: What about the “Approximate lethal SN dose” value ([9]; body size 0.03 kg) of the same compound?
Answer: Its value is roughly 0.02 gm.
